Test results reported in patent US6197774A, “Pyrimidine derivative” (Otsuka Pharmaceutical Co., Ltd., priority 1997, dated 2001).

Columns and labels:
[1] = MTT assay, index of toxicity for A 549 cells; assay type: cell-based; details: human, a549 cells, control 100.0, read-out: Ratio of optical absorbance
Experimental: Test was conducted in accordance with the method as described in J. Immunol. Methods, Vol. 94, pp. 57-68, (1986). Cell strain RAW 264.7 derived from the macrophage of mouse was incubated similarly as in the method of Test Example 1(1). After that, MTT reagent (5 mg/ml) in 1/10 amount of the culture medium was added to the cells, and incubated for 4 hours. The supernatant of culture medium was taken off, then the cells were collected by using 1% SDS solution and the optical absorbance at 570-630 nm of the SDS solution was measured.
Cell strain A 549 (ATCC) derived from human alveolar epithelium cells was placed on each one of the wells on a microplate having 24-wells so as to put the cells in an amount of 3×10^5 cells/U (well). The cells were incubated for 24 hours in F-12 Nutrient Mixture culture medium (mfd. by GIBCO) to which 10% of equine serum, 100 U/ml of penicillin (mfd. by Dainippon Pharmaceutical Co., Ltd.) and 100 μg/ml of streptomycin (mfd. by Dainippon Pharmaceutical Co., Ltd.) were added.
On the other hand, the test culture medium, containing the test compound of Example 1 was prepared similarly as in the reference culture medium, except adding the test compound (1×10^-5, 1×10^-6 and 1×10^-7 M) dissolved in dimethyl sulfoxide (DMSO) at the same time of inducers-addition.
The concentration of IL-8 formed in the supernatant of each one of the culture media after 24-hour incubation was measured by IL-8 ELISA Kit Human (mfd. by genzyme). Further, MTT assay was conducted by the similar method as described in Text Example 2 to determine the index of toxicity for cells.

[2] = target: T1, 5-lipoxygenase (Rattus norvegicus, UniProt P12527); assay: Activity for inhibiting 5-lipoxygenase in vitro (crude enzyme from rat basophilic leukemia-1 cells, 5-HETE RIA); assay type: biochemical; details: 8 minutes at 25° C.
T1 construct: Thus obtained supernatant was collected and concentrated so as to obtain crude enzyme containing 5-lipoxygenase; host or cells: rat basophilic leukemia-1 cells
T1 sequence (P12527 1-673): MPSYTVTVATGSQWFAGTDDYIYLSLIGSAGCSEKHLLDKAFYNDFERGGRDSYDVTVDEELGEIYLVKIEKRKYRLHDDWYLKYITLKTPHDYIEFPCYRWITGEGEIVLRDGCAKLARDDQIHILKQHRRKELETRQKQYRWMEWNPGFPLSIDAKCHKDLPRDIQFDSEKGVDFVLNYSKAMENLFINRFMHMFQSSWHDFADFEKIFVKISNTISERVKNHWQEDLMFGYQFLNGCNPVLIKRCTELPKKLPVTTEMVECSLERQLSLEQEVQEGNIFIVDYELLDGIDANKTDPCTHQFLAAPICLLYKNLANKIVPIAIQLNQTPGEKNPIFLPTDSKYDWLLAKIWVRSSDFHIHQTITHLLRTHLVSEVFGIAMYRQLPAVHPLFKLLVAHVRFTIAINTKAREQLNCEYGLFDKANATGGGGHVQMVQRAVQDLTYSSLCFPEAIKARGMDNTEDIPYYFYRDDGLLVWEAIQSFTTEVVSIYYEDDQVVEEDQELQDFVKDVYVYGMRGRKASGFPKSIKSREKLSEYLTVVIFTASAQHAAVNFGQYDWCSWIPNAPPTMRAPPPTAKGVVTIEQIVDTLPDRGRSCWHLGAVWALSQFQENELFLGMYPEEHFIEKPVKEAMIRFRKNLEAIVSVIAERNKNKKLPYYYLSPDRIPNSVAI
Experimental: [Evaluation test of activity for inhibiting 5-lipoxygenase in vitro]
Pyrimidine derivative obtained in Example 1 was used as test compound.
Test was referred to the methods as described in Proc. Natl. Acad. Sci. U.S.A., Vol. 81, pp. 689-693 (1984) and J. Biol. Chem., Vol. 260, pp. 11554--11559 (1985).
(1) Preparation of Crude Enzyme Containing 5-lipoxygenase
RBI-1 cells (rat basophilic leukemia-1, ATCC, 1×10^8 cells) in 5 ml of buffer solution (50 mM Tris/1 mM EDTA, pH 7.4) were lysed with nitrogen cavitation bomb (mfd. by PARR Instrument Company) under 750 psi for 20 min at 4° C. The solution were centrifuged with twice volume of 50 mM Tris/1 mM EDTA (pH 7.4) at 5000 rpm for 10 minutes at 4° C. The supernatant of the solution was taken and further centrifuged at 37,500 rpm for 90 minutes at 4° C. Thus obtained supernatant was collected and concentrated so as to obtain crude enzyme containing 5-lipoxygenase. Its protein concentration was determined with Protein assey kit (mfd. by Pierce).
(2) Evaluation of Activity for Inhibiting 5-lipoxygenase (RIA assay)
12.5 μl of Crude enzyme, 61.5 μl of 50 mM Tris-HCl (mfd. by Sigma Chemical Co.), 12.5 μl of 0.5 mM ATP (mfd. by Sigma Chemical Co.), and 12.5 μl of cofacter solution (50 mM Tris-HCl (pH 7.2, at 25° C.) containing 10 mM glutahion, 14 mM of indomethacin and 500 mM of CaCl2.2H2 O) were preincubated for […] at 25° C. for reference solution as control. On the other hand, the test solution containing the test compound of Example 1 was prepared similarly as in the reference solution, except adding 1 μl of the test compound (1×10^-4, 1×10^-5, and 1×10^-6 M).
25 μl of 0.07 mM Arachidonic acid (mfd. by Sigma Chemical Co.) was added each of the reference solution and test solutin to intiate the reaction, and incubated it for 8 minutes at 25° C. The reaction was terminated by adding 40 μl of citric acid (mfd. by Sigma Chemical Co.). […]
RIA assay was conducted by the 5-HETE [^3 H] […] RIA assay to determine the amount of 5-lipoxygenase by counting radioactivity on the liquid scintillation counter (mfd. by Beckman Co.). […]

COCc1cc(=O)n2ncc(-c3ccc(Sc4ccccc4)cc3)c2[nH]1 [Example 1, 4,7-dihydro-5-methoxymethyl-7-oxo-3-(4-phenylthiophenyl)pyrazolo[1,5-a]pyrimidine]
viability at 24 h, 10 µM ([1]; 1 × 10^-5 M): 126%
viability at 24 h, 1 µM ([1]; 1 × 10^-6 M): 98.1%
viability at 24 h, 0.1 µM ([1]; 1 × 10^-7 M): 108%
inhibition at 100 µM ([2]; 1 × 10^-4 M): 24.3%
inhibition at 10 µM ([2]; 1 × 10^-5 M): 38.8%
inhibition at 1 µM ([2]; 1 × 10^-6 M): 68%
